The source of these data is patent publication US11878028B1 (HENAN GENUINE BIOTECH CO., LTD., priority 2023, dated 2024).

The subject of experiment [1] is human lung cancer NCI-H1975 (EGFRL858R/T790M) cell line. Nature of the experiment: Anti-tumor effect of azvudine with osimertinib in NCI-H1975 subcutaneous xenograft mice (Example 1). Type of experiment: in vivo, BALB/c nude mice. The settings on record: for Tumor volume on the 28th day of grouping administration: day 28; for Tumor volume on the 28th day of grouping administration / Tumor weight: mean ± standard error; for Tumor weight / Tweight/Cweight: end of experiment; for Tumor weight: combination; for Tweight/Cweight: tumor weight of treatment group / solvent control group. The source says:
Animals were kept in IVC (independent ventilation system) cages (4 per cage) in SPF grade animal room. The number of animals in the cage, gender, strain, date of receipt, administration regimen, experiment number, group and date of start of the experiment were indicated on the animal information card for each cage. All cages, bedding and drinking water were sterilized before use. Cages, feed and drinking water were changed twice a week. […] The bedding was corn cobs, and was changed twice a week. • Food: Experimental animals had free access to food (irradiation sterilized, dry pelleted food) throughout the whole experimental process. • Drinking water: Experimental animals can freely drink sterilized water. • Cage identification: The number of animals in the cage, gender, strain, date of receipt, • administration regimen, experiment number, group and date of start of the experiment should be indicated on the animal information card for each cage. • Animal identification: Experimental animals were identified with ear tags.
When the cell fusion degree of each bottle reached more than 90%, the cells were digested and resuspended in PBS. The cells were counted to reach a concentration of 5×10^7/ml by using a cell counter, and each mouse was injected with 0.1 ml of cell suspension. The 8th generation cells were inoculated subcutaneously in nude mice. When the tumor grew to about 800 mm^3, the tumor was taken out and cut into a size of 2*2*2 mm^3. The chopped tumor was inoculated on the right back of each mouse. When the average volume of the tumor measured after inoculation reached 100-120 mm^3, grouping administration was started using a random stratified grouping method according to the tumor volume and animal body weight. The lung cancer cell line model was randomly divided into 4 experimental groups with 8 mice in each group. The mice were continuously administered for 28 days after grouping.
(Ti: mean tumor volume of the treatment group on the i^th day of administration, T0: mean tumor volume of the treatment group on the 0th day of administration; Vi: mean tumor volume of the solvent control group on the i^th day of administration, V0: mean tumor volume of the solvent control group on the 0th day of administration)
At the end of the experiment, the surviving animals were euthanized, and the tumor tissue was taken, and weighed to obtain the tumor weight.

For experiment [2] the test system is unchanged. Nature of the experiment: Anti-tumor effect of azvudine with doxitinib in NCI-H1975 subcutaneous xenograft mice (Example 2). It is filed as in vivo, BALB/c nude mice. The settings on record: for Tumor volume / Tumor volume on the 20th day: mean ± SEM, azvudine 1 mg/kg, doxitinib […], combination 1 + […]; for Tumor volume: in mm³. From the text:
Animals were kept in IVC (independent ventilation system) cages (4 per cage) in SPF grade animal room. The number of animals in the cage, gender, strain, date of receipt, administration regimen, experiment number, group and date of start of the experiment were indicated on the animal information card for each cage. All cages, bedding and drinking water were sterilized before use. Cages, feed and drinking water were changed twice a week. The breeding environment and light conditions were as follows: • Temperature: 20˜26° C. • Humidity: 40˜70% • Lighting cycle: 12 hours of light, 12 hours of no light (the light was turned on at 8 am and turned off at 8 pm) • Cage: Cages were made of polycarbonate, with a volume of 325 mm×210 mm×180 mm. The bedding was corn cobs, and was changed twice a week. • Food: Experimental animals had free access to food (irradiation sterilized, dry pelleted food) throughout the whole experimental process. • Drinking water: Experimental animals can freely drink sterilized water. • Cage identification: The number of animals in the cage, gender, strain, date of receipt, • administration regimen, experiment number, group and date of start of the experiment should be indicated on the animal information card for each cage. • Animal identification: Experimental animals were identified with ear tags.
NCI-H1975 cells were cultured in RPMI 1640 medium containing 10% fetal bovine serum in a 37° C. and 5% CO2 incubator. The cells were routinely passaged once a week. When the cell saturation reached 80%-90% and the number achieved the requirement, the cells were collected, counted and inoculated.
0.1 mL (5×10^6) of NCI-H1975 cells were subcutaneously inoculated on the right back of each mouse, and the grouping administration was started when the average tumor volume reached about 154 mm 3.
The experimental index was to investigate whether tumor growth was inhibited, delayed or cured. Tumor diameter was measured with a vernier caliper twice a week or every other day. The tumor volume was calculated according to the formula of: V=0.5a×b^2, where a and b represented the long diameter and short diameter of the tumor, respectively.
The anti-tumor efficacy of the compounds was evaluated by TGI (%) or relative tumor proliferation rate T/C (%). TGI (%) reflected the inhibition rate of tumor growth.
Relative tumor proliferation rate T/C (%) was calculated according to the formula as follows: T/C %=TRTV/CRTV×100% (TRTV represented the average RTV of the treatment group; CRTV Represented the Average RTV of the Negative Control Group). Relative Tumor Volume (RTV) was calculated based on the results of measurement of tumor according to the formula of RTV=Vt/V0, where V0 represented the tumor volume measured during grouping administration (i.e. d0), and Vt represented the tumor volume obtained in a certain measurement, and TRTV and CRTV were collected from the data on the same day.
Statistical analysis included mean and standard error (SEM) of tumor volume at each time point for each group (see Table 3 for specific data). […] The comparison between two groups was analyzed by T-test, and the comparison between three or more groups was analyzed by one-way ANOVA. All data analysis was performed with Prism. p<0.05 was considered significant difference.

The mark [3] stands for this setting: azvudine 1 mpk, osimertinib 2.5 mpk, combination 2.5 + 1 mpk.
Setting [4] is: azvudine 1 mpk, osimertinib 2.5 mpk.
Setting [5] is: based on tumor volume on the 20th day after administration.

The term TGI denotes the reduction of tumour growth relative to the control group. Regarding `[N-]=[N+]=N[C@]1(CO)O[C@@H](n2ccc(N)nc2=O)[C@@H](F)[C@@H]1O` [Azvudine, azvudine], in experiment [1] (NCI-H1975 tumor-bearing mouse model), the “Effect on tumor proliferation (in words)” value was “inhibitory effect on tumor proliferation in a dose-dependent manner”. For the same molecule, the “TGITV (tumor volume inhibition rate)” value is 35.7% in experiment [1] (after 28 days of administration, azvudine 1 mpk, osimertinib 2.5 mpk, combination 2.5 + 1 mpk) and 35.7% in experiment [1] (after 28 days of administration, azvudine 1 mpk, osimertinib 2.5 mpk, combination 2.5 + 1 mpk, listed as azvudine). Further, the “Tumor volume on the 28th day of grouping administration” value in experiment [1] (setting [3]) came to 628.3 ± 165.4 mm^3. Besides, the Tumor weight in experiment [1] (setting [4]) is given as 879.3 ± 226.9 mg. This molecule came in with a Tweight/Cweight in experiment [1] of 49.5%. Moreover, in experiment [2] (NCI-H1975 xenograft tumor mouse model), the “Effect on tumor growth (in words)” value was “inhibitory effect on tumor growth in a dose-dependent manner”. Further, in experiment [2] (setting [5]), the TGI turned out to be 54.01%. The Tumor volume in experiment [2] (day 0 after administration) was 154 ± 11; in experiment [2] (day 3 after administration), 252 ± 25; in experiment [2] (day 6 after administration) it was 447 ± 46; in experiment [2] (day 10 after administration) it was 614 ± 78; in experiment [2] (day 13 after administration) it was 774 ± 106; in experiment [2] (day 17 after administration) it was 1,102 ± 118. Besides, the Tumor volume in experiment [2] (day 20 after administration) was 1,396 ± 162; in experiment [2] (day 24 after administration), 2,382 ± 305. In addition, the “Tumor volume on the 20th day” value in experiment [2] (day 20 after administration) is recorded as 1,396 ± 162 mm3.

On to doxitinib, for which, in experiment [2] (setting [5]), the “T/C (relative tumor proliferation rate)” value amounted to 15.77%. The tumour growth inhibition (TGI) in experiment [2] (setting [5]) turned out to be 87.50%. Also, the Tumor volume in experiment [2] (day 0 after administration) was 154 ± 12; in experiment [2] (day 3 after administration), 180 ± 19; in experiment [2] (day 6 after administration), 232 ± 27; in experiment [2] (day 10 after administration) it was 277 ± 34; in experiment [2] (day 13 after administration), 350 ± 65; in experiment [2] (day 17 after administration), 395 ± 86. The Tumor volume in experiment [2] (day 20 after administration) stood at 492 ± 109; in experiment [2] (day 24 after administration), 802 ± 220. Moreover, the “Tumor volume on the 20th day” value in experiment [2] (day 20 after administration) came to 492 ± 109 mm3.

As for `C=CC(=O)Nc1cc(Nc2nccc(-c3cn(C)c4ccccc34)n2)c(OC)cc1N(C)CCN(C)C` [Osimertinib, osimertinib], the “Tumor volume on the 28th day of grouping administration” value in experiment [1] (setting [3]) amounted to 377.9 ± 90.8 mm^3. Moreover, the Tumor weight in experiment [1] (setting [4]) worked out at 716.9 ± 207.4 mg. Besides, in experiment [1], the Tweight/Cweight came to 40.3%. The “TGITV (tumor volume inhibition rate)” value in experiment [1] (mouse, in vivo) is listed as 66.4%.
